We go through 8 molecules from patent US12655124B2, “Heterocyclic compounds as modulators of stimulator of interferon genes (STING)” (RYVU THERAPEUTICS S.A., priority 2019, dated 2026).

The structures appear in SMILES notation.

Sequence of human STING (Q86WV6 whole entry H232R): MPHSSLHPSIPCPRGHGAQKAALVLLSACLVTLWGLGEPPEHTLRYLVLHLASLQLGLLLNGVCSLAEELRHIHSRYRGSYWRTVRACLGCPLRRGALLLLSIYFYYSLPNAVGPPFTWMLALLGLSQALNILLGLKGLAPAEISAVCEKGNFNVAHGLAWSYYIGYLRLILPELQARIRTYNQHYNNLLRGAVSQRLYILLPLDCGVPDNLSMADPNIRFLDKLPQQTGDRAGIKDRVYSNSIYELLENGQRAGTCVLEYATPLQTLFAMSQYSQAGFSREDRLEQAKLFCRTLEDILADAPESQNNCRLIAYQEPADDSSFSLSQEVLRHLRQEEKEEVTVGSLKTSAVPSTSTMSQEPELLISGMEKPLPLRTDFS

The target of the test is human STING (Homo sapiens, UniProt Q86WV6). The test is described as follows: Fluorescence Thermal Shift assay (hSTING FTS binding assay).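 Also: STING preincubated with compound for 20 min in HEPES NaCl buffer pH 7.5.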 The note with it: ΔTm, STING 0.1 mg/mL, SyproOrange, 25 to 99° C. The protocol:
Fluorescence Thermal Shift Assay Compounds of the present invention were tested for binding to human STING in Fluorescence Thermal Shift assay. […] Final STING concentration was 0.1 mg/mL. Thermal unfolding was performed in Real-Time PCR QuantStudio 6 Flex System (Applied Biosystems), from 25 to 99° C., with continuous ramp mode and ramp rate 0.033° C./s. The data were analyzed using Protein Thermal Shift Software (ThermoFisher).
With `Cc1ccc(N2CCC[C@H](N(Cc3ccnc(C)c3)Cc3cn(C4CC4)c4cc(N5CCC[C@@H](N)C5)c(F)cc4c3=O)C2)cn1` [Example 17, 7-[(3R)-3-Aminopiperidin-1-yl]-1-cyclopropyl-6-fluoro-3-({[(3S)-1-(6-methylpyridin-3-yl)piperidin-3-yl][(2-methylpyridin-4-yl)methyl]amino}methyl)-1,4-dihydroquinolin-4-one], the “hSTING FTS binding assay (ΔT ° C.)” value is on record as “+++ (ΔTm≥20° C.)”.
With `CNC1CCN(c2cc3c(cc2F)c(=O)c(CN(Cc2ccnc(C)c2)[C@H]2CCCN(c4ccc(C)nc4)C2)cn3C2CC2)CC1.Cl` [Example 19, 1-cyclopropyl-6-fluoro-7-[4-(methylamino)piperidin-1-yl]-3-({[(3S)-1-(6-methylpyridin-3-yl)piperidin-3-yl][(2-methylpyridin-4-yl)methyl]amino}methyl)-1,4-dihydroquinolin-4-one Hydrochloride], the “hSTING FTS binding assay (ΔT ° C.)” value is given as “+++ (ΔTm≥20° C.)”.
Take `Cc1ccc(N2CCC[C@H](N(Cc3ccnc(C)c3)Cc3cn(C4CC4)c4cc(N5CC[C@@H](CN)C5)c(F)cc4c3=O)C2)cn1.Cl` [Example 20, 7-[(3S)-3-(aminomethyl)pyrrolidin-1-yl]-1-cyclopropyl-6-fluoro-3-({[(3S)-1-(6-methylpyridin-3-yl)piperidin-3-yl][(2-methylpyridin-4-yl)methyl]amino}methyl)-1,4-dihydroquinolin-4-one Hydrochloride]: the “hSTING FTS binding assay (ΔT ° C.)” value is on record as “+++ (ΔTm≥20° C.)”.
As for `COCCn1cc(CN(Cc2ccnc(C)c2)[C@H]2CCCN(c3ccc(N)nc3)C2)c(=O)c2ccccc21.Cl` [Example 21, 3-({[(3S)-1-(6-aminopyridin-3-yl)piperidin-3-yl][(2-methylpyridin-4-yl)methyl]amino}methyl)-1-(2-methoxyethyl)-1,4-dihydroquinolin-4-one Hydrochloride], the entry is “+++ (ΔTm≥20° C.)”.
Take `Cc1ccc(N2CCC[C@H](N(Cc3ccnc(C)c3)Cc3cn(C4CC4)c4cc(N5CC(N)C6(CC6)C5)c(F)cc4c3=O)C2)cn1.Cl` (stereo partly drawn) [Example 22, 7-{7-amino-5-azaspiro[2.4]heptan-5-yl}-1-cyclopropyl-6-fluoro-3-({[(3S)-1-(6-methylpyridin-3-yl)piperidin-3-yl][(2-methylpyridin-4-yl)methyl]amino}methyl)-1,4-dihydroquinolin-4-one Hydrochloride]: the “hSTING FTS binding assay (ΔT ° C.)” value was “+++ (ΔTm≥20° C.)”.
For the molecule `Cc1ccc(N2CCC[C@H](N(Cc3ccnc(C)c3)Cc3cn(C)c4cc(N5CC[C@@H](O)C5)ccc4c3=O)C2)cn1` [Example 23, 7-[(3R)-3-hydroxypyrrolidin-1-yl]-1-methyl-3-({[(3S)-1-(6-methylpyridin-3-yl)piperidin-3-yl][(2-methylpyridin-4-yl)methyl]amino}methyl)-1,4-dihydroquinolin-4-one], the “hSTING FTS binding assay (ΔT ° C.)” value was “++ (10<ΔTm<20° C.)”.
Turning to `Cc1ccc(N2CCC[C@H](N(Cc3ccnc(C)c3)Cc3cn(C4CC4)c4cc(N5CCC(N)C(F)(F)C5)c(F)cc4c3=O)C2)cn1` (stereo partly drawn) [Example 26, 7-(4-amino-3,3-difluoropiperidin-1-yl)-1-cyclopropyl-6-fluoro-3-({[(3S)-1-(6-methylpyridin-3-yl)piperidin-3-yl][(2-methylpyridin-4-yl)methyl]amino}methyl)-1,4-dihydroquinolin-4-one], the “hSTING FTS binding assay (ΔT ° C.)” value is on record as “+++ (ΔTm≥20° C.)”.
On to `Cc1ccc(N2CCC[C@H](N(Cc3ccnc(C)c3)Cc3cn(C4CC4)c4cc(N5CC(CO)C5)c(F)cc4c3=O)C2)cn1` [Example 27, 1-cyclopropyl-6-fluoro-7-[3-(hydroxymethyl)azetidin-1-yl]-3-({[(3S)-1-(6-methylpyridin-3-yl)piperidin-3-yl][(2-methylpyridin-4-yl)methyl]amino}methyl)-1,4-dihydroquinolin-4-one], for which the “hSTING FTS binding assay (ΔT ° C.)” value is recorded as “+++ (ΔTm≥20° C.)”.
